Test results: publication PMC10342533, “Novel Tetrazole Derivatives Targeting Tubulin Endowed with Antiproliferative Activity against Glioblastoma Cells” (International Journal of Molecular Sciences, 2023)

Assays:
[1] = test system: HEK-293 (embryonic kidney); experiment: Cell growth inhibition, MTT assay, non-tumor HEK-293; type: cell-based; settings: Homo sapiens, HEK293, 72 h, non-tumorigenic cell line
Method: The ability of the synthesized compounds to inhibit the cell proliferation of human cancer cell lines was assayed by measuring cell viability through the use of the MTT method 72 h after treatment. For this purpose, representative cell lines of the most frequent kinds of cancer were selected, including the following: HeLa (cervix epithelioid carcinoma), MCF7 (breast adenocarcinoma), U87 MG (glioblastoma), T98G (temozolomide resistant glioblastoma), HepG2 (hepatocellular carcinoma), HCT8 (colorectal carcinoma), and HT-29 (colon adenocarcinoma). […] The compounds were also tested against the non-tumor HEK-293 cells to study their selectivity toward cancer cells. […] The cell lines were obtained from ATTC (Manassas, VA, USA). […] The cells were periodically tested for Mycoplasma infection by using a MycoAlert kit (Lonza, Norwest, Australia), and only Mycoplasma-free cells were used in the experiments. […] Louis, MO, USA), which was dissolved in PBS at 5 mg/mL in accordance with the manufacturer's instructions. […] Untreated cells were used as negative controls. The antiproliferative activity of compounds was measured 72 h after drug exposure through the MTT assay. […] For this purpose, compounds were used at different concentrations, ranging from 10^-10 to 10^-2 M. Measurements were performed in triplicate, and each experiment was repeated three times. The IC50 values were determined using Origin software (version 9.6, OriginLab, Washington, DC, USA).

HeLa cells [2] = experiment: Apoptotic cell death quantification, Annexin V-FITC/PI, HeLa; type: cell-based, human; settings: 72 h, 100 nM
Method: To characterize the cell death mechanism induced by the representative compounds 10, 12, or 14 at 100 nM on HeLa, MCF7, and U87 MG cells, dual-channel flow cytometry studies were carried out for cells in the absence (negative control) or presence of compounds 72 h after treatment. Fluorescein isothiocyanate-labeled Annexin V (FITC-AnV) and propidium iodide (PI) were used for double staining. Regarding their response to AnV and PI, cells can be identified as viable (PI−, AnV−), early apoptotic (PI−, AnV+), late apoptotic or secondary necrotic (PI+, AnV+), or necrotic (PI+, AnV−). The translocation of the phosphatidylserine from the inner to the outer cell membrane causes the response of apoptotic cells to AnV, whereas only cells suffering some kind of membrane disintegration (late apoptotic or necrotic cells) allow PI permeation.
Following the manufacturer’s guidelines, an Annexin V-FITC/PI apoptosis detection kit (Immunostep, Salamanca, Spain) was used to quantify HeLa, MCF7, or U87 MG cells. Cells were seeded in 12-well plates (5·10^4 cells/mL, 1 mL/well) and incubated in complete DMEM medium (see above) at 37 °C and 5% CO2 atmosphere for 24 h. Then, the cells were treated with selected compounds (10, 12, or 14) at 100 nM, and untreated cells were used as negative controls. Then, 72 h after incubation, the cells were harvested, centrifugated, resuspended in the Annexin V binding buffer, and incubated in darkness with Annexin V-FITC/PI for 15 min at room temperature. The samples were analyzed by using a BD Accuri™ C6 Plus Flow Cytometer (BD Biosciences), and acquired data were analyzed via BD Accuri™ C6 Software (version 1.0.264.21).

[3] = test system: T98G (temozolomide resistant glioblastoma); experiment: Cell growth inhibition, MTT assay, T98G; type: cell-based; settings: Homo sapiens
Method: The ability of the synthesized compounds to inhibit the cell proliferation of human cancer cell lines was assayed by measuring cell viability through the use of the MTT method 72 h after treatment. For this purpose, representative cell lines of the most frequent kinds of cancer were selected, including the following: HeLa (cervix epithelioid carcinoma), MCF7 (breast adenocarcinoma), U87 MG (glioblastoma), T98G (temozolomide resistant glioblastoma), HepG2 (hepatocellular carcinoma), HCT8 (colorectal carcinoma), and HT-29 (colon adenocarcinoma).
The cell lines were obtained from ATTC (Manassas, VA, USA). […] The cells were periodically tested for Mycoplasma infection by using a MycoAlert kit (Lonza, Norwest, Australia), and only Mycoplasma-free cells were used in the experiments.
Then, every compound was added (10 µL/well) to a final concentration of 10 µM. Untreated cells were used as negative controls. The antiproliferative activity of compounds was measured 72 h after drug exposure through the MTT assay. […] For this purpose, compounds were used at different concentrations, ranging from 10^−10 to 10^−2 M. Measurements were performed in triplicate, and each experiment was repeated three times. The IC50 values were determined using Origin software (version 9.6, OriginLab, Washington, DC, USA).

HeLa cells [4] = experiment: Cell cycle analysis by flow cytometry (PI), HeLa; type: cell-based, human; settings: 100 nM
Method: To assess how tubulin polymerization inhibition and the effects on the microtubule network affect the cell cycle, flow cytometry experiments were performed on HeLa, MCF7, and U87 MG cells 24, 48, and 72 h after treatments with compounds 10, 12, and 14 at 100 nM using propidium iodide (PI) for DNA staining and untreated cells as the negative control.
HeLa, MCF7, or U87 MG cells were seeded in 6-well plates (8·10^4 cells/mL, 2 mL/well) and incubated in complete DMEM Medium (see above) at 37 °C and 5% CO2 atmosphere for 24 h. Then, the cells were treated with selected compounds (10, 12, or 14) at 100 nM, and untreated cells were used as negative controls. Cells were collected 24, 48, or 72 h following treatment and fixed overnight in ethanol/PBS (7:3) at 4 °C. After two washes with PBS, cells were suspended in PBS and incubated in darkness overnight with 0.2 mg/mL RNase A (Sigma-Aldrich, St. Louis, MO, USA), 50 µg/mL propidium iodide (Sigma-Aldrich, St. Louis, MO, USA), and Triton 10x at room temperature. A BD Accuri™ C6 Plus Flow Cytometer (BD Biosciences, Franklin Lakes, NJ, USA) cytometer was used to analyze the samples, and BD Accuri™ C6 Software (version 1.0.264.21) was used for data analysis.

Row | Compound | IC50 [1] [nM] | apoptosis (early and late apoptotic death) (HeLa cells [2]) [%] | IC50 ([3]; 72 h, 72 h after drug exposure) [nM] | G0/G1 population (HeLa cells [4]; 24 h) [% Cells] | G2/M population (HeLa cells [4]; 24 h) [% Cells] | S population (HeLa cells [4]; 24 h) [% Cells] | SubG0/G1 population (HeLa cells [4]; 24 h) [% Cells] | G0/G1 population (HeLa cells [4]; 48 h) [% Cells] | G2/M population (HeLa cells [4]; 48 h) [% Cells] | S population (HeLa cells [4]; 48 h) [% Cells] | SubG0/G1 population (HeLa cells [4]; 48 h) [% Cells] | G0/G1 population (HeLa cells [4]; 72 h) [% Cells] | G2/M population (HeLa cells [4]; 72 h) [% Cells] | S population (HeLa cells [4]; 72 h) [% Cells] | SubG0/G1 population (HeLa cells [4]; 72 h) [% Cells] | IC50 ([3]; mean ± SD, Table S1) [nM]
1 | CSc1cc(-c2nnnn2-c2ccc3c(ccn3C)c2)cc(Cl)n1 [Compound 10, 5-(5-(2-chloro-6-(methylsulfanyl)pyridin-4-yl)-1H-tetrazol-1-yl)-1-methyl-1H-indole] | 4390 | ~73 | 25 | 18.1 | 59.5 | 3.9 | 18.6 | 16.7 | 45.9 | 7.6 | 29.1 | 14.4 | 35.2 | 4.9 | 45.6 | 
2 | Cn1cc(C=O)c2cc(-n3nnnc3-c3cc(Cl)nc(Cl)c3)ccc21 [Compound 12, 5-(5-(2,6-dichloropyridin-4-yl)-1H-tetrazol-1-yl)-1-methyl-1H-indole-3-carbaldehyde] | 3080 | ~73 | 26 | 20.0 | 57.8 | 4.6 | 17.8 | 18.2 | 40.8 | 7.8 | 32.5 | 15.3 | 34.0 | 5.6 | 45.4 | 26.2 ± 0.2
3 | CSc1cc(-c2nnnn2-c2ccc3c(c2)c(C=O)cn3C)cc(Cl)n1 [Compound 14, 5-(5-(2-chloro-6-(methylsulfanyl)pyridin-4-yl)-1H-tetrazol-1-yl)-1-methyl-1H-indole-3-carbaldehyde] | 2270 | 80 | 19 | 16.6 | 47.0 | 3.7 | 32.7 | 17.1 | 34.1 | 7.0 | 41.3 | 9.6 | 25.4 | 8.1 | 57.4 | 
